Assay results: patent EP0908457B1, “3-(1,2-benzisothiazol- and isoxazol-5-Y1)-2,4(1H,3H)-pyrimidinedione or thione and 3-(1,2-benzisothiazol- and isoxazol-5-y1)-4(3H)-pyrimidinone or thione herbicidal agents” (BASF AKTIENGESELLSCHAFT, priority 1997, dated 1999)

What was measured:
[1] = system: Monochoria vaginalis, Presl.; assay: Preemergence weed control under flooded paddy conditions, MOOVA (Monochoria); type: in vivo; conditions: preemergence, flooded paddy, rated three to four weeks after treatment; note: meaning of each grade not given here
Cyperus iria = assay: Preemergence weed control under flooded paddy conditions, CYPIR (Rice Flatsedge); type: in vivo; conditions: preemergence, flooded paddy, rated three to four weeks after treatment; note: meaning of each grade not given here
[2] = system: Cyperus serotinus, Rottb.; assay: Preemergence weed control under flooded paddy conditions, CYPSE (Flatsedge); type: in vivo; conditions: preemergence, rated three to four weeks after treatment; note: meaning of each grade not given here
[3] = system: Echinochloa oryzoides (Ard.) Fritsch.; assay: Preemergence weed control under flooded paddy conditions, ECHORC (Watergrass (Calif.)); type: in vivo; conditions: preemergence, flooded paddy, rated three to four weeks after treatment; note: meaning of each grade not given here
Sagittaria pygmaea, L. = assay: Preemergence weed control under flooded paddy conditions, SAGPY (Arrowhead (Pygmaea)); type: in vivo; conditions: preemergence, flooded paddy, rated three to four weeks after treatment; note: meaning of each grade not given here
[4] = system: Oryza sativa, (L.) Tebonnet; assay: Rice tolerance to post-transplant applications under flooded paddy conditions (Example 187), ORYSAT (Rice, Tebonnet); conditions: rated three to four weeks after treatment

Compound	herbicidal effect rating, MOOVA ([1]; 0.0313 kg/ha)	herbicidal effect rating, MOOVA ([1]; 0.0625 kg/ha)	herbicidal effect rating, MOOVA ([1]; 0.1250 kg/ha)	herbicidal effect rating, MOOVA ([1]; 0.2500 kg/ha)	herbicidal effect rating, CYPIR (Cyperus iria; 0.0313 kg/ha)	herbicidal effect rating, CYPIR (Cyperus iria; 0.0625 kg/ha)	herbicidal effect rating, CYPIR (Cyperus iria; 0.1250 kg/ha)	herbicidal effect rating, CYPIR (Cyperus iria; 0.2500 kg/ha)	herbicidal effect rating, CYPSE ([2]; 0.0313 kg/ha)	herbicidal effect rating, CYPSE ([2]; 0.0625 kg/ha)	herbicidal effect rating, CYPSE ([2]; 0.1250 kg/ha)	herbicidal effect rating, CYPSE ([2]; 0.2500 kg/ha)	herbicidal effect rating, ECHORC ([3]; 0.0313 kg/ha)	herbicidal effect rating, ECHORC ([3]; 0.0625 kg/ha)	herbicidal effect rating, ECHORC ([3]; 0.1250 kg/ha)	herbicidal effect rating, ECHORC ([3]; 0.2500 kg/ha)	herbicidal effect rating, SAGPY (Sagittaria pygmaea, L.; 0.0313 kg/ha)	herbicidal effect rating, SAGPY (Sagittaria pygmaea, L.; 0.0625 kg/ha)	herbicidal effect rating, SAGPY (Sagittaria pygmaea, L.; 0.1250 kg/ha)	herbicidal effect rating, SAGPY (Sagittaria pygmaea, L.; 0.2500 kg/ha)	also measured
COC(=O)COc1noc2ccc(-n3c(=O)cc(C(F)(F)F)n(C)c3=O)cc12 [Example 22, Methyl {{5-[3,6-dihydro-3-methyl-2,6-dioxo-4-(trifluoromethyl)-1(2H)-pyrimidinyl]-1,2-benzisoxazol-3-yl}oxy}acetate]	9.0	9.0	9.0	9.0	9.0	9.0	9.0	9.0	2.0	7.0	7.0	9.0	9.0	9.0	9.0	9.0	0.0	2.0	4.0	9.0	herbicidal effect rating, ORYSAT (rice tolerance) ([4]; 0.0313 kg/ha): 2.0; herbicidal effect rating, ORYSAT (rice tolerance) ([4]; 0.0625 kg/ha): 2.0; herbicidal effect rating, ORYSAT (rice tolerance) ([4]; 0.1250 kg/ha): 2.5; herbicidal effect rating, ORYSAT (rice tolerance) ([4]; 0.2500 kg/ha): 2.5
Cc1noc2cc(F)c(-n3c(=O)cc(C(F)(F)F)n(C)c3=O)cc12 [Example 23, 3-(6-Fluoro-3-methyl-1,2-benzisoxazol-5-yl)-1-methyl-6-(trifluoromethyl)-2,4(1H,3H)-pyrimidinedione]	9.0	9.0	9.0	9.0	7.0	9.0	9.0	9.0	4.0	7.0	8.0	9.0	4.5	7.0	8.5	9.0	4.0	6.0	9.0	9.0	herbicidal effect rating, ORYSAT (rice tolerance) ([4]; 0.0313 kg/ha): 5.5; herbicidal effect rating, ORYSAT (rice tolerance) ([4]; 0.0625 kg/ha): 6.5; herbicidal effect rating, ORYSAT (rice tolerance) ([4]; 0.1250 kg/ha): 8.0; herbicidal effect rating, ORYSAT (rice tolerance) ([4]; 0.2500 kg/ha): 8.5
COc1ccc(C)cc1-c1nsc2ccc(-n3c(=O)cc(C)n(C)c3=O)cc12 [Example 24, 3-[3-(6-Methoxy-m-tolyl)-1,2-benzisothiazol-5-yl]-1,6-dimethyl-2,4(1H,3H)-pyrimidinedione]	4.0	8.0	9.0	9.0	0.0	2.0	6.0	8.0	0.0	0.0	1.0	4.0	0.0	0.0	2.0	7.0	0.0	0.0	0.0	0.0	herbicidal effect rating, ORYSAT (rice tolerance) ([4]; 0.0313 kg/ha): 2.0; herbicidal effect rating, ORYSAT (rice tolerance) ([4]; 0.0625 kg/ha): 2.0; herbicidal effect rating, ORYSAT (rice tolerance) ([4]; 0.1250 kg/ha): 3.0; herbicidal effect rating, ORYSAT (rice tolerance) ([4]; 0.2500 kg/ha): 4.0
Cn1c(C(F)(F)F)cc(=O)n(-c2ccc3onc(-c4ccccc4)c3c2)c1=O [Example 25, 1-Methyl-3-(3-phenyl-1,2-benzisoxazol-5-yl)-6-(trifluoromethyl)-2,4(1H,3H)-pyrimidinedione]	9.0	9.0	9.0	9.0	9.0	9.0	9.0	9.0	0.0	2.0	7.0	8.0	7.0	9.0	9.0	9.0	0.0	0.0	1.0	4.0	herbicidal effect rating, ORYSAT (rice tolerance) ([4]; 0.0313 kg/ha): 4.0; herbicidal effect rating, ORYSAT (rice tolerance) ([4]; 0.0625 kg/ha): 6.0; herbicidal effect rating, ORYSAT (rice tolerance) ([4]; 0.1250 kg/ha): 7.0; herbicidal effect rating, ORYSAT (rice tolerance) ([4]; 0.2500 kg/ha): 7.0
